# Measurements as given in patent US20140017165A1, “DNA REPAIR ENZYME INHIBITOR NANOPARTICLES AND USES THEREOF” (priority 2011, published 2014).
# How the values were obtained:
# ATM = ATM (Homo sapiens, UniProt Q13315); details: cited from earlier work
# DNA-PK = DNA-PK (Homo sapiens, UniProt P78527); details: cited from earlier work
# [1] = Maximum tolerated dose (MTD) of wortmannin formulations in non-tumor-bearing mice; details: mouse, in vivo, other: injected, mg/kg of wortmannin, in cremophor solution or encapsulated in nanoparticle (2% w/w)
# Description: MTD, defined as the highest possible dose resulting in no animal deaths and less than 20% weight loss was evaluated for wortmannin formulations. Non-tumor-bearing mice (NOD/SCID, C57BL/6, CB6F1 and CD1) were injected with varying amounts of wortmannin nanoparticle and wortmannin in cremophor normalized to mg wortmannin injected/kg of mice body weight. The animals were weighed and observed daily for any change in physical activity. Weight loss greater than 20% and/or lethargy were interpreted as indications of toxicity and the mice were immediately euthanized.
# Table 2 compares the maximum tolerated dose (MTD) of wortmannin in cremophor and wortmannin nanoparticle in different mouse strains.
# [2] = Toxicity profile (hematologic toxicity, hepatotoxicity) in CD1 mice after tail vein i.v. injection; type: in vivo; details: single tail vein i.v.; for Hematologic Toxicity: Monocytes: normal range 0.1-1.5; for Hematologic Toxicity: Lymphocytes: normal range 0.5-5; for Hematologic Toxicity: Granulocytes: normal range 1.2-8; for Hematologic Toxicity: WBC: normal range 3.5-10; for Hepatotoxicity: ALT / Hepatotoxicity: AST: plasma, normal range 40-50 U/L
# Description: CD1 mice were given tail vein i.v. injection with different wortmannin formulations (wortmannin nanoparticle or wortmannin in cremophor) at the indicated doses (⅕^th the MTD or 1/10th the MTD). After 24 h, submandibular bleeding was performed. Blood (100-200 ul) was collected in heparin coated tubes to prevent coagulation. Whole blood samples were immediately submitted for blood toxicity to the Animal Clinical Laboratory Core Facility at UNC. For liver toxicity studies, blood samples were centrifuged (15000×g for 10 minutes) to separate blood cells from the plasma and samples were submitted for analysis.
# Table 3 and 4 show the toxicity profile in mice of wortmannin in cremophor and wortmannin nanoparticle.
# Table 3 and 4. Toxicity profile in CD1 mice post i.v. injection of wortmannin formulations. Mice were treated with indicated doses of wortmannin or wortmannin nanoparticle containing an equivalent dose of wortmannin (2% w/w). (Single tail vein i.v. injection, toxicity profile 3 d post injection).
# [3] = cited from earlier work
# cancer cells = details: Bae et al. 2007, FIG. 6; cited from earlier work
# [4] = 1/10th MTD of Wtmn (0.07 mg/kg)
# Sequence of ATM (Q13315 whole entry, species assumed): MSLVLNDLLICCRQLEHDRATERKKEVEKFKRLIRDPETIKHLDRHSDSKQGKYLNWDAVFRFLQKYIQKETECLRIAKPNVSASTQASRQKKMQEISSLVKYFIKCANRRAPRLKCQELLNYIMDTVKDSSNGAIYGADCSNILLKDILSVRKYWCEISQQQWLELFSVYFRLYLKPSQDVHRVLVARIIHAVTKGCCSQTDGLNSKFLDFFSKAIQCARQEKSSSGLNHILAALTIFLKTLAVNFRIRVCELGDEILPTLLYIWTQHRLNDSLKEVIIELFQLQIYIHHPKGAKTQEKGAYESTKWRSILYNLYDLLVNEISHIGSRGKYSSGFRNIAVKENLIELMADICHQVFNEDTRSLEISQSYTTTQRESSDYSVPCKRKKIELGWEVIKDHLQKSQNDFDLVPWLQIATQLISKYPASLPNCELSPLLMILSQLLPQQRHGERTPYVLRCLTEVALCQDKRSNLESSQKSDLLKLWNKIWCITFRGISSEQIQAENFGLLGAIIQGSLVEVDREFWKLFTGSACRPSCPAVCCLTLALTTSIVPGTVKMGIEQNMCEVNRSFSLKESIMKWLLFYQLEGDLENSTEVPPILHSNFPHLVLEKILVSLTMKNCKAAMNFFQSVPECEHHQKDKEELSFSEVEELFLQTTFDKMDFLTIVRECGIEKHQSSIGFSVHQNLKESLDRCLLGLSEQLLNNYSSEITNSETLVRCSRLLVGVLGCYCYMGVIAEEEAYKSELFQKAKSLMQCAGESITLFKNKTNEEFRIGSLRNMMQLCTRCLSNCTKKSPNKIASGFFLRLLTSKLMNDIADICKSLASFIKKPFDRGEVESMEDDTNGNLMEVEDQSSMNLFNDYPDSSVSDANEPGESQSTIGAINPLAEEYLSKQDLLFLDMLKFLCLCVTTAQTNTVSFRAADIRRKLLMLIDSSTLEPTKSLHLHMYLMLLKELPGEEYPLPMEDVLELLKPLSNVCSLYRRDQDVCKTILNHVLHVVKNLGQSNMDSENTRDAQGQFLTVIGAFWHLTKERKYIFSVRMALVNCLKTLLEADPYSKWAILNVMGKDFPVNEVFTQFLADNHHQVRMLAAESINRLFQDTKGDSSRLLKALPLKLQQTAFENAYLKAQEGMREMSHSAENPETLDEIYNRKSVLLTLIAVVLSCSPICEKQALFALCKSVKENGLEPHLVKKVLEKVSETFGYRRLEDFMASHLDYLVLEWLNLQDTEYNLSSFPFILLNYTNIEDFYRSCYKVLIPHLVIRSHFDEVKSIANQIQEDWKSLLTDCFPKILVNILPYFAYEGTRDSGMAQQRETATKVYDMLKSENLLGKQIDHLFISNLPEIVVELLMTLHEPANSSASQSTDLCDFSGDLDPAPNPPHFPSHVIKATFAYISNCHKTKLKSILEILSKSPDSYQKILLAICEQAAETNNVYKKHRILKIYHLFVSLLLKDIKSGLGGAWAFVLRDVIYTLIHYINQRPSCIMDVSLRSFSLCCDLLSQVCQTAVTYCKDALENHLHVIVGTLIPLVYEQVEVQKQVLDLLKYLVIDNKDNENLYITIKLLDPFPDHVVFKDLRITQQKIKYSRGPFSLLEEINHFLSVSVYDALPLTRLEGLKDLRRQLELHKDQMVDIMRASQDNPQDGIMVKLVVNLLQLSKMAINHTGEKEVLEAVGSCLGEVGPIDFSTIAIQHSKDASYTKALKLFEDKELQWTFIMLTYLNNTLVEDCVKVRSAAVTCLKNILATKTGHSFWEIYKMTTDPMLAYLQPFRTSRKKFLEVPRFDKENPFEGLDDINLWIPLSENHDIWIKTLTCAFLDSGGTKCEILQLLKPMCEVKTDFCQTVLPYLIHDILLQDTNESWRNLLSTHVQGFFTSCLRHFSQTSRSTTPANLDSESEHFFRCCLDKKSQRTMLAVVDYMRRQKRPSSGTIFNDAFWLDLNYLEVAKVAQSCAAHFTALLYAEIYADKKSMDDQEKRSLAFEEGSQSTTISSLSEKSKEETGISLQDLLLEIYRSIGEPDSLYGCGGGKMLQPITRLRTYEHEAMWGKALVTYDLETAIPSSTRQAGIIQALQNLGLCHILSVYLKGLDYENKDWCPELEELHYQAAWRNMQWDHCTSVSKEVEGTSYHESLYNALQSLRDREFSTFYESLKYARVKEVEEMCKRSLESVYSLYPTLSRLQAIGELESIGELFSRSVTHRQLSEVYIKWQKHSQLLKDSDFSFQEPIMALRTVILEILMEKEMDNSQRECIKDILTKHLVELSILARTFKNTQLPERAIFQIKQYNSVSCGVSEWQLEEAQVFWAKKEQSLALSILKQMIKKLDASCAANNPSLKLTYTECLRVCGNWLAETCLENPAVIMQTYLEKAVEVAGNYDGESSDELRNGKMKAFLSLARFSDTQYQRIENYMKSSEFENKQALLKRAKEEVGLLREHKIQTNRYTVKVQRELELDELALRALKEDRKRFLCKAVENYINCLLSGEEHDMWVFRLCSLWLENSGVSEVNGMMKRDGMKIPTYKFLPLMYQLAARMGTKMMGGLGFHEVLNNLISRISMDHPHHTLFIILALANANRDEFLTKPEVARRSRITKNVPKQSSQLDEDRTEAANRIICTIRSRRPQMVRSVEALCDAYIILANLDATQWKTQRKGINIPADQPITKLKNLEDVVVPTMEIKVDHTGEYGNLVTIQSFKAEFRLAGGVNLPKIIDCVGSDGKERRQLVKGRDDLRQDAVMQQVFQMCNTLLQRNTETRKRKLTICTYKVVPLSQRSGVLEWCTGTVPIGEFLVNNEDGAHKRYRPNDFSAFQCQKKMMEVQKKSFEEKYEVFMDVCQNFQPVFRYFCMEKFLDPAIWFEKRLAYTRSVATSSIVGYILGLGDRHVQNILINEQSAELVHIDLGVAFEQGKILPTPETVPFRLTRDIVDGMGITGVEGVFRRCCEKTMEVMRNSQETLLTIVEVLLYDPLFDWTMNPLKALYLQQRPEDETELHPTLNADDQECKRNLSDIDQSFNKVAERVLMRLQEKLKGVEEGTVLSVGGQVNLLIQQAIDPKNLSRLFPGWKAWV
smiles,measurement,setting,value
"O=c1cc(-c2cccc3c2Sc2ccccc2S3)oc(N2CCOCC2)c1 [KU-55933, 2-morpholin-4-yl-6-thianthren-1-yl-pyran-4-one]",inhibits ATM,ATM,low nanomolar concentrations
O=c1cc(N2CCOCC2)oc2c(-c3cccc4c3sc3ccccc34)cccc12 [NU7441],IC50,DNA-PK,13 nM
"COC[C@H]1OC(=O)c2coc3c2[C@@]1(C)C1=C(C3=O)[C@@H]2CCC(=O)[C@@]2(C)C[C@H]1OC(C)=O [Wortmannin, wortmannin]",MTD,[1]; C57BL/6 (Black) mice,0.7 mg/kg
same,MTD,[1]; CB6F1 (Brown) mice,0.5 mg/kg
same,MTD,[1]; CD1 (White) mice,0.7 mg/kg
same,MTD,[1]; NOD/SCID mice,0.7 mg/kg
same,Hematologic Toxicity: Monocytes,[2]; 1/5th MTD of Wtmn (0.14 mg/kg),0.55 ± 0.07 103/μl
same,Hematologic Toxicity: Lymphocytes,[2]; 1/5th MTD of Wtmn (0.14 mg/kg),0.4 ± 0.42 103/μl
same,Hematologic Toxicity: Granulocytes,[2]; 1/5th MTD of Wtmn (0.14 mg/kg),0.8 ± 0.14 103/μl
same,Hematologic Toxicity: WBC,[2]; 1/5th MTD of Wtmn (0.14 mg/kg),2.8 ± 0.28 103/μl
same,Hepatotoxicity: ALT,[2]; 1/5th MTD of Wtmn (0.14 mg/kg),134 ± 17 U/L
same,Hepatotoxicity: AST,[2]; 1/5th MTD of Wtmn (0.14 mg/kg),44 ± 3 U/L
same,Hematologic Toxicity: Monocytes,[2]; [4],0.8 ± 0.42 103/μl
same,Hematologic Toxicity: Lymphocytes,[2]; [4],0.9 ± 0.28 103/μl
same,Hematologic Toxicity: Granulocytes,[2]; [4],2.4 ± 0.11 103/μl
same,Hematologic Toxicity: WBC,[2]; [4],4.3 ± 0.13 103/μl
same,Hepatotoxicity: ALT,[2]; [4],64 ± 11 U/L
same,Hepatotoxicity: AST,[2]; [4],40 ± 7 U/L
same,half-life in serum,[3],approximately 10 minutes
same,cytotoxicity against cancer cells,cancer cells,unexpectedly low cytotoxicity
